# In article PMC4661905, “A Mechanism of O-Demethylation of Aristolochic Acid I by Cytochromes P450 and Their Contributions to This Reaction in Human and Rat Livers: Experimental and Theoretical Approaches” (International Journal of Molecular Sciences, 2015):
# Tests used:
# CYP3A4 = test: Contribution of CYP to AAI oxidation in human liver; format: in vitro ADME; conditions: from Supersomal velocities with cytochrome b5 and CYP expression levels
# Procedure: (§1) In order to calculate the contributions of individual CYPs to AAI oxidation in human and rat livers, we utilized the velocities of AAI oxidation to AAIa by the Supersomal CYP enzyme systems containing cytochrome b5 (Figure 2) in the combination with the data on the expression levels of CYPs in human and rat livers. The contributions of these enzymes were calculated by relative activity factor because the activities of CYP in Supersomes™ should be considered in addition to the relative contents of CYPs in the livers. Therefore, the contributions of each CYP that oxidizes AAI in livers were calculated by dividing of the relative activity of each of such CYPs oxidizing AAI [r.a.cypi] (rate of AAI oxidation multiplied by amounts of this CYP in tissues examined), by the total relative activities (∑[r.a.cypi]) of all CYPs oxidizing this substrate. Of human liver CYPs, CYP3A4 is the major enzyme present in this human organ (~30% of the CYP hepatic complement), followed by CYP2C9 and 1A2 (~15% and ~13%, respectively), while CYP2C19, 2E1 2A6, 2D6, 2C8, and 3A5 are present in human liver in levels of the range of ~8.5%–~2.5% of the liver CYPs (see [58] for an overview). CYPs of the 2C subfamily (CYP2C6, 2C11, 2C12, and 2C13) are the major enzymes expressed in rat livers accounting of ~55% of the CYP complement. Of the CYP2C complement, ~50% and ~20% correspond to CYP2C11 and 2C6, respectively. Of the other CYPs, CYP2E1, 3A, 2D, 2A, 2B, and 1A enzymes are also present in rat livers, expressed in levels of ~15%, ~10%, ~7%, ~6%, ~5%, and ~2%, respectively.
# CYP1A1 [1] = test: as above; format: in vitro ADME; conditions: from Supersomal velocities with cytochrome b5 and CYP expression levels
# Procedure: as §1
# CYP2D6 = test: as above; format: in vitro ADME
# Procedure: as §1
# CYP2C9 [2] = test: as above; format: in vitro ADME; conditions: from Supersomal velocities with cytochrome b5 and CYP expression levels
# Procedure: as §1
# CYP2E1 = test: as above; format: in vitro ADME
# Procedure: as §1
# CYP2C8 = test: as above; format: in vitro ADME
# Procedure: as §1
# CYP1B1 = test: as above; format: in vitro ADME
# Procedure: as §1
# CYP3A5 = test: as above; format: in vitro ADME
# Procedure: as §1
# CYP2B6 = test: as above; format: in vitro ADME
# Procedure: as §1
# CYP1A2 = test: as above; format: in vitro ADME; conditions: from Supersomal velocities with cytochrome b5 and CYP expression levels
# Procedure: as §1
# CYP2C19 = test: as above; format: in vitro ADME
# Procedure: as §1
# CYP2C9 [3] = conditions: CYP2C9, with vs without cytochrome b5; cited from earlier work
# CYP2C11 = test: Contribution of CYP to AAI oxidation in rat liver; format: in vitro ADME
# Procedure: as §1
# CYP1A1 [4] = test: Contribution of CYP to AAI oxidation in rat liver; format: in vitro ADME
# Procedure: as §1
# CYP1A subfamily = test: Contribution of CYP to AAI oxidation in rat liver; format: in vitro ADME
# Procedure: as §1
# CYP2C subfamily = test: Contribution of CYP to AAI oxidation in rat liver; format: in vitro ADME
# Procedure: as §1
# CYP2C6 = test: Contribution of CYP to AAI oxidation in rat liver; format: in vitro ADME
# Procedure: as §1
# human CYP1A2 = conditions: CYP1A2, with vs without cytochrome b5; cited from earlier work
# [5] = tested on: CYP enzymes of liver microsomes that oxidise (demethylate) AAI to AAIa; test: Effect of CYP inhibitors on AAI oxidation to AAIa by rat liver microsomes; format: in vitro ADME; conditions: male, Wistar, pH 7.4, probe AAI (10 μM), inhibitor 10 μM equimolar to AAI (10 μM), 0.1 nmol CYP, mean ± SD, n = 3, NI = no inhibition, read-out: AAIa Formation (% of Control without Inhibitor) Rat Microsomes
# Procedure: Microsomal fractions were prepared from livers of ten male Wistar rats (AnLab, Prague, Czech Republic) by differential centrifugation as described previously.
# (§2) Incubation mixtures (250 μL) contained 100 mM potassium phosphate buffer (pH 7.4), 1 mM NADPH, 1 mg human or rat liver microsomal protein and 10 μM AAI [30, 43]. […] Control incubations were performed (i) without microsomal proteins; (ii) without NADPH; or (iii) without AAI. […] For Supersomes™, incubation mixtures (final volume 250 μL) consisted of 100 mM potassium phosphate buffer (pH 7.4), 1 mM NADP^+, 10 mM MgCl2, 10 mM D-glucose 6-phosphate, 1 U/mL D-glucose 6-phosphate dehydrogenase (NADPH-generating system), 50 nM CYPs in Supersomes™, and 10 μM AAI. Supersomes™ with POR alone were utilized as controls. AAI and its metabolites (i.e., AAIa) were extracted from incubation mixtures with 2 × 1 mL of ethyl acetate and evaporated to dryness; residues were dissolved in 30 μL of methanol and analyzed with reverse-phase HPLC as described.
# (§3) Compounds were dissolved in 2.5 μL methanol (except for DDTC that was dissolved in distilled water) to yield final concentrations of 10 μM in the incubation mixtures. Inhibitors (10 μM) were incubated at 37 °C for 10 min with the NADPH-generating system prior to addition of 10 μM AAI, and then incubated for an additional 20 min at 37 °C. AAIa formation was analyzed by HPLC as described above.
# [6] = tested on: CYP enzymes of liver microsomes that oxidise (demethylate) AAI to AAIa; test: Effect of CYP inhibitors on AAI oxidation to AAIa by human liver microsomes; format: in vitro ADME; conditions: pH 7.4, probe AAI (10 μM), inhibitor 10 μM equimolar to AAI (10 μM), 0.1 nmol CYP, mean ± SD, n = 3, NI = no inhibition, read-out: AAIa Formation (% of Control without Inhibitor) Human Microsomes
# Procedure: as §2, §3
structure (smiles),measurement,setting,value
"COc1cccc2c1cc([N+](=O)[O-])c1c(C(=O)O)cc3c(c12)OCO3 [AAI, aristolochic acid I]",Contribution to AAI oxidation to AAIa,CYP3A4,~ 10.5%
same,Contribution to AAI oxidation to AAIa,CYP1A1 [1],~ 8.3%
same,Contribution to AAI oxidation to AAIa,CYP2D6,negligible
same,Contribution to AAI oxidation to AAIa,CYP2C9 [2],~ 15.8%
same,Contribution to AAI oxidation to AAIa,CYP2E1,~ 1.1%
same,Contribution to AAI oxidation to AAIa,CYP2C8,~ 1.0%
same,Contribution to AAI oxidation to AAIa,CYP1B1,negligible
same,Contribution to AAI oxidation to AAIa,CYP3A5,negligible
same,Contribution to AAI oxidation to AAIa,CYP2B6,negligible
same,Contribution to AAI oxidation to AAIa,CYP1A2,~ 47.5%
same,Contribution to AAI oxidation to AAIa,CYP2C19,~ 0.6%
same,Increase in AAIa formation by cytochrome b5,CYP2C9 [3],not significant
same,Contribution to AAI oxidation to AAIa,CYP2C11,~ 42%
same,Contribution to AAI oxidation to AAIa,CYP1A1 [4],~ 1.7%
same,Contribution to AAI oxidation to AAIa,CYP1A subfamily,~ 17%
same,Contribution to AAI oxidation to AAIa,CYP2C subfamily,~ 83%
same,Contribution to AAI oxidation to AAIa,CYP2C6,~ 17%
same,Increase in AAIa formation by cytochrome b5,human CYP1A2,not significant
"CCN(CC)C(=S)S [DDTC, diethyldithiocarbamate]","activity at 20 min, 10 μM",[5],52 ± 4%
same,"activity at 20 min, 10 μM",[6],96 ± 5%
"Cc1nc2c([nH]1)c(=O)n(C)c(=O)n2Cc1ccco1 [Furafylline, furafylline]","activity at 20 min, 10 μM",[5],84 ± 5%
same,"activity at 20 min, 10 μM",[6],75 ± 4%
"C=C[C@H]1C[N@@]2CC[C@H]1C[C@@H]2[C@@H](O)c1ccnc2ccc(OC)cc12 [Quinidine, quinidine]","activity at 20 min, 10 μM",[5],> 100%
same,"activity at 20 min, 10 μM",[6],> 100%
"Nc1ccc(S(=O)(=O)Nc2ccnn2-c2ccccc2)cc1 [Sulfaphenazole, sulfaphenazole]","activity at 20 min, 10 μM",[5],68 ± 3%
same,"activity at 20 min, 10 μM",[6],> 100%
"O=c1cc(-c2ccccc2)oc2c1ccc1ccccc12 [α-Napththoflavone, α-Naphthoflavone]","activity at 20 min, 10 μM",[5],85 ± 5%
same,"activity at 20 min, 10 μM",[6],89 ± 5%
